According to PMC3606118, “Salvianolic Acid A, a Novel Matrix Metalloproteinase-9 Inhibitor, Prevents Cardiac Remodeling in Spontaneously Hypertensive Rats” (PLoS ONE, 2013):
Like-named read-outs stand apart in the source and are kept apart here.

Experiments:
[1] = Toxicological evaluation of SalA on SHR; format: in vivo, SHR rats
Procedure: (§1) 2-month old male SHR rats were given rodent chow containing 8% NaCl 4 weeks before SaA treatment to the end of the experiment. Rats were divided into four groups (20 per group) and were injected intraperitoneally with saline or SalA everyday at the indicated dose for 4 weeks. The four groups were named as SalA (0 mg/kg), SalA (2.5 mg/kg), SalA (5 mg/kg), SalA (10 mg/kg) basing on the dose of SalA, respectively.
(§2) After ketamine-xylazine anesthesia (ketamine: xylazine, 60∶5 mg/kg, intramuscularly), heart, liver and kidney samples from experimental animals were fixed with 4% neutral-buffered paraformaldehyde for 24 h. Specimens were paraffin-embedded, sliced at 5 µm, and stained with haematoxylin and eosin. After staining, the sections were rinsed with distilled water, dehydrated, and mounted with Permount. Photomicrographs were taken using an Olympus BX51 microscope plus Olympus DP71 CCD camera (Olympus Corporation). Software Image-Pro Plus version 6.0 was used and approximately 150 cells per heart were measured to determine the average myocyte circumference. Paraffin-embedded slices were also stained with 0.1% picric sirius red (Sigma-Aldrich Inc, St Louis, USA) for fibrillar collagen. Collagen volume fraction (CVF) was expressed as a percentage of the total area of the field occupied by collagen staining.

MMP-9 CD = molecular target: T1, MMP-9 CD (Homo sapiens, UniProt P14780, DEL217-390); experiment: MMP-9 inhibition assay (thiopeptolide, enzyme kinetic analysis); format: biochemical
T1 construct: corresponding to residues 107–216 and 391–444; made in house
T1 sequence (P14780 with tags, fused parts or gaps DEL217-390 limits assumed): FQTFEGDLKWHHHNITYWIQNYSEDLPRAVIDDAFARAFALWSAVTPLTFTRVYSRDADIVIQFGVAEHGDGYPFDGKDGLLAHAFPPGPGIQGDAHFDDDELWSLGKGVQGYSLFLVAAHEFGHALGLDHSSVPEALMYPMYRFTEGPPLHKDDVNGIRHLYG
Procedure: Phenolic acids at the indicated concentrations were incubated with the reaction mixtures contained MMP-9 CD (15 nmol/L) and 5,5′-dithiobis-(2-nitrobenzoic acid) (1 mmol/L) at 4°C for 30 min. The reaction was initiated by the addition of thiopeptolide (Ac-Pro-Leu-Gly-S-Leu-Leu-Gly-OEt). Hydrolysis of thiopeptolide was monitored at 412 nm using Benchmark Plus™ microplate spectrophotometer (Bio-Rad) at room temperature. Kinetic analysis of phenolic acids against MMP-9 CD was calculated using double reciprocal plots of 1/V versus 1/[thiopeptolide]. The slope of every double reciprocal plot is the Km ^app/Vmax of enzyme at different compound concentration. Secondary plot was drawn through Km ^app/Vmax versus compound concentration. Km ^app is apparent value of Km; Ki is inhibition constant; Ki was calculated using the equation Ki = [Km/Vmax][compound]/(Km ^app/Vmax –Km/Vmax).

[2] = tested on: neonatal cardiac fibroblast; experiment: Soluble collagen secretion (picrosirius red assay); format: cell-based, Wistar rats; conditions: 24 h, p<0.05
Procedure: (§3) Primary cardiac fibroblast was obtained from neonatal rats and National Institutes of Health (NIH) Guide for the Care and Use of Laboratory Animals was followed throughout. Wistar rats (2–4 day old) were sacrificed by cervical dislocation; ventricles were minced and digested with 0.1% trypsin at 37°C for 8 min. The liberated cells were collected by centrifugations; non-digested chunk materials were further digested in 0.1% trypsin for an additional 8 min. This digestion procedure was repeated 3–4 times. All the liberated cells were pelleted by centrifugation at 1,000 rpm for 10 min, re-suspended in DMEM containing 10% fetal bovine serum (FBS), and cultured in a 100-mm noncoated culture flask at 37°C with 5% CO2 for 2 h. Adherent cardiac fibroblasts were collected and maintained in DMEM supplemented with 10% FBS, 100 U/mL penicillin, 100 µg/mL streptomycin [12]. Cardiac fibroblasts were treated by vehicle (Con); 200 nmol/L MMP-9 CD (MMP-9); 200 nmol/L MMP-9 CD plus 1 µmol/L SalA [MMP-9/SalA(1)]; or 200 nmol/L MMP-9 CD plus 10 µmol/L SalA [MMP-9/SalA(10)] for the following research. […]
Soluble collagen secreted by neonatal cardiac fibroblast was measured using picrosirius red assay with minor modification, [15]. […] 200 µL solution was transferred to 96 well plate for measuring absorbance at 595 nm using a UV spectrophotometer (Tecan GENios, Austria).

[3] = tested on: neonatal cardiac fibroblast; experiment: Transwell migration of neonatal cardiac fibroblast induced by MMP-9 CD; format: cell-based, Wistar rats; conditions: 1 µmol/L SalA, 200 nmol/L MMP-9 CD, 24 h (MMP-9 alone 85.2±12.4, Con 25.9±2.1)
Procedure: as §3, with “[12].” for “[12]. Cardiac fibroblasts were treated by vehicle (Con); 200 nmol/L MMP-9 CD (MMP-9); 200 nmol/L MMP-9 CD plus 1 µmol/L SalA [MMP-9/SalA(1)]; or 200 nmol/L MMP-9 CD plus 10 µmol/L SalA [MMP-9/SalA(10)] for the following research.”
Transwell assay was employed to evaluate effects of SalA on neonatal cardiac fibroblast migration induced by MMP-9 CD. […] After incubating for 24 h, migrated cells (in the lower side of migration chamber) were stained with 0.1% crystal violet and counted with a microscope at 200 X magnification. Five to six view fields were counted on each membrane. Migration is expressed as the mean value of total number of migrated cells per field.

[4] = tested on: neonatal cardiac fibroblast; experiment: CCK-8 proliferation of neonatal cardiac fibroblast; format: cell-based, Wistar rats; conditions: 10 µmol/L SalA with MMP-9 CD, 24 h
Procedure: Primary cardiac fibroblast was obtained from neonatal rats and National Institutes of Health (NIH) Guide for the Care and Use of Laboratory Animals was followed throughout. Wistar rats (2–4 day old) were sacrificed by cervical dislocation; ventricles were minced and digested with 0.1% trypsin at 37°C for 8 min. The liberated cells were collected by centrifugations; non-digested chunk materials were further digested in 0.1% trypsin for an additional 8 min. This digestion procedure was repeated 3–4 times. All the liberated cells were pelleted by centrifugation at 1,000 rpm for 10 min, re-suspended in DMEM containing 10% fetal bovine serum (FBS), and cultured in a 100-mm noncoated culture flask at 37°C with 5% CO2 for 2 h. Adherent cardiac fibroblasts were collected and maintained in DMEM supplemented with 10% FBS, 100 U/mL penicillin, 100 µg/mL streptomycin [12]. Cardiac fibroblasts were treated by vehicle (Con); 200 nmol/L MMP-9 CD (MMP-9); 200 nmol/L MMP-9 CD plus 1 µmol/L SalA [MMP-9/SalA(1)]; or 200 nmol/L MMP-9 CD plus 10 µmol/L SalA [MMP-9/SalA(10)] for the following research. All the detections were conducted after 24 h treatment.
Cell proliferation assay was performed using Cell Counting Kit (CCK-8 kit, Dojindo Laboratory, Japan) as described previously. Absorbance was detected at 450 nm (reference 650 nm) using a microplate reader (Tecan GENios, Austria).

[5] = tested on: spontaneously hypertensive rats (SHR); format: in vivo; conditions: for HW/BW (heart weight divided by body weight): 0 mg 4.37±0.08; for collagen volume fraction: 0 mg/kg 4.61±0.31
Procedure: as §1, §2

[6] = 2.5 mg/kg i.p. everyday 4 weeks

O=C(/C=C/c1ccc(O)c(O)c1/C=C/c1ccc(O)c(O)c1)O[C@H](Cc1ccc(O)c(O)c1)C(=O)O [SalA, salvianolic acid A]
signs of toxicity or mortality ([1]; intraperitoneally administered to rats for 1 month): failed to induce any signs of toxicity or mortality
body weight, food consumption ([1]; rat, in vivo, 10 mg/kg): no changes
inhibition mode on MMP-9 (MMP-9 CD; double reciprocal plots): competitively
Ki (MMP-9 CD; spectrophotometric enzyme kinetic assay, thiopeptolide substrate): 5.74 ± 1.15 µM
net collagen production in the presence of MMP-9 CD ([2]; 1 µmol/L SalA): significantly attenuated
net collagen production in the presence of MMP-9 CD ([2]; 10 µmol/L SalA): significantly attenuated
migrated cells [3]: 45.3±9.1 cells per field
proliferation of neonatal cardiac fibroblast [4]: considerable promotion
HW/BW (heart weight divided by body weight) [5, 6]: 4.36 ± 0.05 mg/g
collagen volume fraction [5, 6]: 4.48±0.29%
HW/BW (heart weight divided by body weight) ([5]; 5 mg/kg i.p. everyday 4 weeks): 4.37 ± 0.08 mg/g
collagen volume fraction ([5]; 5 mg/kg i.p. everyday 4 weeks): 3.04±0.16%
HW/BW (heart weight divided by body weight) ([5]; 10 mg/kg i.p. everyday 4 weeks, p<0.05): 4.10 ± 0.08 mg/g
collagen volume fraction ([5]; 10 mg/kg i.p. everyday 4 weeks): 2.58±0.17%
cardiomyocyte size (myocyte circumference) ([5]; SalA treatment versus SHR, p<0.001): significantly down-regulated
